Assay results as given in patent US11401508B2, “Methods for isolating human cardiac ventricular progenitor cells” (Procella Therapeutics AB, priority 2016, dated 2022).

Assays:
hPSCs = assay: Cardiac differentiation of hPSCs, lineage markers by flow cytometry and immunostaining; assay type: cell-based, human
Procedure: Cells were then cultured in mTeSR1, changed daily.
Data were collected on a FACSCaliber flow cytometer (Beckton Dickinson) and analyzed using FlowJo.

GSK-3 α = GSK-3 α (Homo sapiens, UniProt P49840); conditions: cited from earlier work
Chain of GSK-3 α (P49840 whole entry, species assumed): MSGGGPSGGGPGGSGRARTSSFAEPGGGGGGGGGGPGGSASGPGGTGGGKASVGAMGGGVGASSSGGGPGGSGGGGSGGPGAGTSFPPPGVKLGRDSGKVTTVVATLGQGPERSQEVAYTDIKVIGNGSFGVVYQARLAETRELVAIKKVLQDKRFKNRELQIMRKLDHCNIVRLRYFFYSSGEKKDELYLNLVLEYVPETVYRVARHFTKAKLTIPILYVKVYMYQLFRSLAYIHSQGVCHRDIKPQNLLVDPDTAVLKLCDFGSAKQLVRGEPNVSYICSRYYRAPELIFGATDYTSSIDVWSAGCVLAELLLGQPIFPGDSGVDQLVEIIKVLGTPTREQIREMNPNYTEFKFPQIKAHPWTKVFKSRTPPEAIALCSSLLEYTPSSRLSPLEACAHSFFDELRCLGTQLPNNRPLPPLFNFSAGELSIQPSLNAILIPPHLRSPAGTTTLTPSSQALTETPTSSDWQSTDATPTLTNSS

GSK-3, β = GSK-3, β (Homo sapiens, UniProt P49841); conditions: read-out: IC50 GSK-3 β; cited from earlier work
Chain of GSK-3, β (P49841 whole entry, species assumed): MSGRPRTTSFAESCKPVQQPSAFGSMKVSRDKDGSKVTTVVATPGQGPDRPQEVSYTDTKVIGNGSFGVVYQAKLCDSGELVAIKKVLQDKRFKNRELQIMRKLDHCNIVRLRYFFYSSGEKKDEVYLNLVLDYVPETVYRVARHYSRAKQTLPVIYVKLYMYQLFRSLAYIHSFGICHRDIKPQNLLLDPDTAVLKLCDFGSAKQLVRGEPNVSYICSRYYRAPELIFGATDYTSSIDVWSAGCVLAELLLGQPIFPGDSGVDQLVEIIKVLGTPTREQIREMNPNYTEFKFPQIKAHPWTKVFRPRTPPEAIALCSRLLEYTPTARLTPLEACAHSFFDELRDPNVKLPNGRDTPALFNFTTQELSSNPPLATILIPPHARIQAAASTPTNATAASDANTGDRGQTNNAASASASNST

Porcn = molecular target: T1, Porcn (Homo sapiens, UniProt Q9H237); conditions: read-out: IC50 (Porcn inhibitor); cited from earlier work
T1 sequence (Q9H237 1-461): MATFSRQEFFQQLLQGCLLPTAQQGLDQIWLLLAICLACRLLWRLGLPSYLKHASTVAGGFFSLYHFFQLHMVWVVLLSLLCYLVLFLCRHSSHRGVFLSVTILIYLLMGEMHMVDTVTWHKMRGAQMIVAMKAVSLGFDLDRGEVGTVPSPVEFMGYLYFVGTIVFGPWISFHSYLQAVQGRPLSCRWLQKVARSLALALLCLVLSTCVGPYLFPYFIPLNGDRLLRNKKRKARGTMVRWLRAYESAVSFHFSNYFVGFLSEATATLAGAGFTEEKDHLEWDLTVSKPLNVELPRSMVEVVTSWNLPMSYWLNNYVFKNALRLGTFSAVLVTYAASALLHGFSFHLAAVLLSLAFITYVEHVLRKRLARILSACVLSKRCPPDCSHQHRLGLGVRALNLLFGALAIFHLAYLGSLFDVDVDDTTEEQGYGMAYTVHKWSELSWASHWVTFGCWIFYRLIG

[1] = system: mature human muscle organ; assay: Force generation of muscle strips from HVP-derived human muscle organ on electric stimulation; conditions: 5-month graft, p<0.05 compared to control
From the text: Animals were sacrificed and the engrafted kidneys were removed for further analysis. The 5-month human graft was a hemisphere structure with the radius of 0.4 cm (diameter of 0.8 cm). […] In addition, muscle trips taken from our mature human muscle organ generated forces (0.36±0.04 mN) in response to electric stimulation and increased their force generation after treatment with a β-adrenergic agonist isoprenaline (0.51±0.02 mN, p<0.05 compared to control). Taken together, these studies indicate that the HVPs are capable of generating a fully functional, mature human ventricular muscle organ in vivo via a cell autonomous pathway, i.e., without the addition of other cells, genes, matrix proteins, or biomaterials.

Q: Which “hPSCs expressing the mesoderm marker Brachyury” value (hPSCs; after 24 hour treatment) does the source give for CHIR98014 here?
A: Its value is “more than 99%”.

Q: And the “differentiated cells expressing Mesp1 (cardiac mesoderm)” value (hPSCs; three days after treatment)?
A: The value was “more than 95%”.

Q: What about the IC50 (GSK-3 α) of the same compound?
A: The IC50 was 0.65 nM.

Q: What about the IC50 (GSK-3, β) of the same compound?
A: The IC50 was 0.58 nM.

Q: With `Cc1ccc2nc(NC(=O)CSc3nc4c(c(=O)n3-c3ccccc3)SCC4)sc2c1` [IWP2] as the compound, how does the IC50 (Porcn) read?
A: The IC50 was 27 nM.

Q: For `Cc1cc(-c2ccc(CC(=O)Nc3ccc(-c4cccnc4)cc3)cc2)ccn1` [Wnt-059], which “ventricular progenitor differentiation from mesoderm cells” value (hPSCs; 48-hour treatment) is on record?
A: Its value is “enhanced ventricular progenitor differentiation”.

Q: What about the IC50 (Porcn) of the same compound?
A: Its IC50 is 0.074 nM.

Q: Which “force generated by muscle strips after treatment with β-adrenergic agonist” value [1] does the source give for `CC(C)NCC(O)c1ccc(O)c(O)c1` (centres unmarked) [isoprenaline] here?
A: Its value is 0.51±0.02 mN.
